SMILES strings stand for the structures. Where “and” joins values, the source holds several entries; their conditions need not be identical. Equal entries are not always repeated.

Test [1] concerns murine peritoneal macrophages; tumor targets Daudi and CEM-CM3. As to the kind of experiment: "In vitro-ex vivo" effect on the cytotoxic activity of peritoneal macrophages (lysis of 3H-TdR labelled tumor cells). Also on record: species or system mouse (B6 D2 F1, C57B16); tumor targets human. As for the experimental part:
Assessment of the "in vitro-ex vivo" effect of ST 557, ST 563, ST 570 and ST 626 on the cytotoxic activity of peritoneal macrophages (M)
Male hybrid B6 D2 F1 aged 7-9 weeks and male inbred mice C57B16 aged 8 weeks were used (4 animals/group).
All the compounds were administered i.p. (25 mg/kg/day). ST 557 was also administered per os (100 mg/kg/day) from day -5 to day -1 (peritoneal exudate cell [PEC] harvesting at day 0).
PEC were obtained from sacrificed animals, 24 hours following the end of treatment, via repeated washings of the abdominal cavity. The peritoneal exudates obtained from each group of animals were pooled.
The macrophage percentage was assessed by counting in a Burker chamber; cell suspensions (concentration=2×10^6 M/ml) were prepared.
The macrophage cytotoxic activity was assessed using the following two tumor cell lines as targets: Daudi, derived from a human lymphoblastoma and CEM-CM3, derived from human lymphoblastic leukemia (both lines are disclosed in ATCC--American Type Culture Collection--Cell lines of hybridoma, 5th Ed.--1985).
The experimental procedure is substantially the same as that described by Herscowitz, H. B. (1981)--Manual of Macrophage Methodology. Dekker M, Editor.
In particular, samples of cell lines were labelled with ^3 H-TdR (tritiated thymidine) and their concentration was adjusted to 5×10^4 cells/ml. They were then added to the macrophage preparations (using 96-well microtiter plates) and the volumes were adjusted so as to obtain Effector (macrophage)/Target (tumor cell) ratios of 20:1; 40:1 and 80:1 in an overall volume of 0.3 ml/well.
Three replicates for each sample were prepared; after 48 and 72 hours of incubation at 37° C. in 5% CO2. Aliquots of 0.1 ml of supernatant were drawn out from each well and counted in a β-counter.
The macrophage cytotoxic activity results in a tumor cell lysis that causes the release of the radioactivity incorporated by the cells into the supernatant.
Based on the βeta-counter data (in cpm) this activity is expressed as the percentage of radioactivity released following lysis with respect to the radioactivity incorporated by the tumor cells.
The relevant formulas are as follows: [formula]
The measures carried out on the samples account for a certain degree of lysis occurring spontaneously in cultured tumor cells not exposed to macrophages. Total radioactivity incorporated by the tumor cells is calculated by conducting a lysis with 1% SDS in distilled water.

Test [2] deals with peritoneal macrophages of treated mice; target tumor cells. As to the kind of experiment: "In vitro-ex vivo" effect on the cytostatic activity of peritoneal macrophages. Also on record: species or system mouse (B6 D2 F1); tumor targets human. As to the method:
Assessment of the "in vitro-ex vivo" effect of ST 557, ST 563 and ST 570 on the cytostatic activity of peritoneal macrophages
Male B6 D2 F1 mice aged 7-9 weeks (5 animals per group) were used.
The compounds were administered i.p. (25 mg/kg/day), ST 557 and ST 563 were also administered per os (100 mg/kg/day) from day -5 to day -1 (peritoneal cell harvesting at day 0).
The macrophages and target tumor cell lines were prepared as in test 1 and their concentrations were adjusted to 1×10^6 M/ml and 5×10^4 cell/ml, respectively.
Volumes of tumor cells were added to the macrophage preparations so as to obtain Effector/Target ratios of 10:1, 20:1 and 40:1.
Each sample was pulsed with ^3 H-TdR for 18 hours in order to label the tumor cells, which were then collected on filters and counted in a beta-counter.
The macrophage cytostatic activity is expressed as percentage inhibition of tumor cell replication, by assessing the radioactivity incorporated by the tumor cells in each sample with respect to the maximum radioactivity incorporated by a sample consisting of tumor cells only. [formula]

The subject of test [3] is splenocytes. As to the kind of experiment: "In vitro-ex vivo" effect on the mytogen (PHA, LPS)-induced splenocyte proliferation in mice. Also on record: species or system mouse (B6 D2 F1). Particulars: 25 mg/kg/day i.p. As for the experimental part:
Assessment of the "in vitro-ex vivo" effect of ST 557, ST 563, ST 608 on the mytogen (PHA, LPS)-induced splenocyte proliferation in mice
Male B6 D2 F1 mice aged 6-10 weeks (4 animals per group) were used.
The compounds were administered i.p. 25 mg/kg/day, from day -5 to -1 (spleen excision at day 0).
PHA (active on T lymphocytes) and LPS (active on B lymphocytes) were used as mytogens. Each mytogen was tested at three different concentrations (suboptimal, optimal, superoptimal): 0.5, 4 and 6 mcg/ml/well and 0.5, 150 and 500 mcg/ml/well, respectively.
The experimental procedure was conducted substantially as described by Kirchner et al., "Splenic suppressor macrophages induced in mice by injection of C. parvum", J. Immunol., 1975, 115: 1212.
In particular, the cell suspensions obtained from the spleens of the animals of the same group were pooled and the cell concentration was adjusted to 5×10^6 cells/ml.
To volumes of 0.1 ml of each sample, equal volumes of the mytogen preparations were added so as to obtain, for each mytogen, the previously indicated final concentrations.
Each sample was prepared in triplicate in U-bottom microtiters. A control, to which 0.1 ml of medium were added instead of the mytogen, was also prepared. The control permits the extent of spontaneous proliferation in the absence of stimulation to be assessed.
The samples were incubated at 37° C. for 48 hours and then they were pulsed with 20 μl ^3 H-TdR (25 μCi/ml).
After 18 hours of further incubation, the cells were collected on filters and counted in a beta-counter.
The results of each sample are expressed by calculating the value of the area under the curve (AUC) obtained by plotting the values of the incorporated radioactivity (in cpm) versus the various concentrations of each mytogen.
In addition to AUC, the stimulation index (SI) is also considered, that is defined as follows. [formula]

The mark [4] stands for this setting: 48 hours, E/T 20:1, 25 mg/kg/day i.p., B6 D2 F1.
The mark [5] stands for this setting: 48 hours, E/T 20:1, 25 mg/kg/day i.p., repeated experiment, B6 D2 F1.
Setting [6] is: 48 hours, E/T 40:1, 25 mg/kg/day i.p., B6 D2 F1.
[7] abbreviates: 48 hours, E/T 40:1, 25 mg/kg/day i.p., repeated experiment, B6 D2 F1.
[8] abbreviates: 48 hours, E/T 80:1, 25 mg/kg/day i.p., repeated experiment, B6 D2 F1.
[9] abbreviates: 72 hours, E/T 20:1, 25 mg/kg/day i.p., B6 D2 F1.
The mark [10] stands for this setting: 72 hours, E/T 20:1, 25 mg/kg/day i.p., repeated experiment, B6 D2 F1.
[11] abbreviates: 72 hours, E/T 40:1, 25 mg/kg/day i.p., B6 D2 F1.
Where [12] appears, read: 72 hours, E/T 40:1, 25 mg/kg/day i.p., repeated experiment, B6 D2 F1.
[13] abbreviates: 72 hours, E/T 80:1, 25 mg/kg/day i.p., repeated experiment, B6 D2 F1.

With `COc1cc2c(cc1OC)CC(N(CC1CC1)CC1CC1)CC2` (stereo not drawn) [ST 557, 2-[(N,N-dicyclopropylmethyl)amino]-6,7-dimethoxytetraline], the “% lysis of tumor target” value was 10.7 ± 0.2% in test [1] (setting [4]); 7.8 ± 0.7% in test [1] (setting [5]); 10.8 ± 0.6% in test [1] (48 hours, E/T 20:1, 25 mg/kg/day i.p., repeated experiment, C57B16 mice); 22.7 ± 0.6% in test [1] (48 hours, E/T 20:1, 100 mg/kg/day os, B6 D2 F1); 24.6 ± 0.8% in test [1] (setting [6]); 13.2 ± 0.7% in test [1] (setting [7]). For the same compound, the “% lysis of tumor target” value in test [1] (48 hours, E/T 40:1, 25 mg/kg/day i.p., repeated experiment, C57B16 mice) is 16.4 ± 0.8%; in test [1] (48 hours, E/T 40:1, 100 mg/kg/day os, B6 D2 F1), 30.1 ± 0.7%; in test [1] (setting [8]), 32.4 ± 0.9%; in test [1] (48 hours, E/T 80:1, 25 mg/kg/day i.p., repeated experiment, C57B16 mice), 28.3 ± 0.5%; in test [1] (48 hours, E/T 80:1, 100 mg/kg/day os, B6 D2 F1), 29.7 ± 0.9%; in test [1] (setting [9]), 13.1 ± 0.3%. In addition, the “% lysis of tumor target” value is given as 13.0 ± 0.7% in test [1] (setting [10]); 11.9 ± 0.7% in test [1] (72 hours, E/T 20:1, 25 mg/kg/day i.p., repeated experiment, C57B16 mice); 29.7 ± 1.2% in test [1] (72 hours, E/T 20:1, 100 mg/kg/day os, B6 D2 F1); 29.3 ± 0.9% in test [1] (setting [11]); 18.7 ± 0.9% in test [1] (setting [12]); 11.9 ± 0.4% in test [1] (72 hours, E/T 40:1, 25 mg/kg/day i.p., repeated experiment, C57B16 mice). Also, the “% lysis of tumor target” value was determined as 41.5 ± 1.3% in test [1] (72 hours, E/T 40:1, 100 mg/kg/day os, B6 D2 F1); 45.3 ± 0.9% in test [1] (setting [13]); 30.9 ± 0.1% in test [1] (72 hours, E/T 80:1, 25 mg/kg/day i.p., repeated experiment, C57B16 mice); 44.4 ± 0.3% in test [1] (72 hours, E/T 80:1, 100 mg/kg/day os, B6 D2 F1). Besides, the “% of inhibition of target tumor growth” value in test [2] (E/T 10:1, 100 mg/kg/day os) is recorded as 24.3 ± 2.2%; in test [2] (E/T 20:1, 25 mg/kg/day i.p.), 45.1 ± 1.1%; in test [2] (E/T 20:1, 100 mg/kg/day os) it was 38.7 ± 1.6%; in test [2] (E/T 40:1, 25 mg/kg/day i.p.) it was 68.9 ± 1.4%; in test [2] (E/T 40:1, 100 mg/kg/day os), 62.8 ± 3.1%. In test [3] (LPS), the “AUC (area under curve, incorporated radioactivity vs mytogen concentration)” value was 10312 ± 1253 ×10^-3 and 18914 ± 389 ×10^-3. Moreover, the “S.I. (stimulation index)” value was 1.22 and 1.15 in test [3] (LPS); 1.27 and 1.13 and 1.73 in test [3] (PHA).
For `COc1cc2c(cc1OC)CC(NCC(O)c1ccc(C)cc1)CC2` (stereo not drawn) [ST 563, 2-[(N-2-hydroxy-2-(4-methylphenyl)ethyl)amino]-6,7-dimethoxytetraline], the “% lysis of tumor target” value was 9.1 ± 0.2% in test [1] (setting [4]); 7.7 ± 0.6% in test [1] (setting [5]); 15.4 ± 0.2% in test [1] (setting [6]); 9.4 ± 0.7% in test [1] (setting [7]); 16.0 ± 1.0% in test [1] (setting [8]); 11.0 ± 0.1% in test [1] (setting [9]). Besides, the “% lysis of tumor target” value in test [1] (setting [10]) is on record as 12.7 ± 0.5%; in test [1] (setting [11]) it was 18.3 ± 0.1%; in test [1] (setting [12]) it was 14.9 ± 0.9%; in test [1] (setting [13]), 22.2 ± 1.4%. Moreover, the “% of inhibition of target tumor growth” value in test [2] (E/T 10:1, 100 mg/kg/day os) came out at 25.0 ± 4.9%; in test [2] (E/T 20:1, 25 mg/kg/day i.p.), 35.0 ± 1.6%; in test [2] (E/T 20:1, 100 mg/kg/day os) it was 47.3 ± 0.6%; in test [2] (E/T 40:1, 25 mg/kg/day i.p.), 55.7 ± 1.4%; in test [2] (E/T 40:1, 100 mg/kg/day os) it was 62.8 ± 3.1%. The “S.I. (stimulation index)” value in test [3] (LPS) was 1.13 and 0.95; in test [3] (PHA), 1.09 and 1.28 and 1.12. The “AUC (area under curve, incorporated radioactivity vs mytogen concentration)” value in test [3] (PHA) was 179 ± 3 ×10^-3 and 256 ± 21 ×10^-3 and 139 ± 5 ×10^-3.

Values taken from patent US5962525A, “6,7-disubstituted-2-aminotetralines active as immunomodulators and pharmaceutical compositions containing same” (Sigma-Tau, priority 1990, dated 1999).
